{"source": "patent US20120101230A1", "about": "“HIGH-DENSITY POLYMER SURFACE COATING TO IMMOBILIZE CHEMICAL OR BIOLOGICAL MOLECULES” (priority 2009, published 2012)", "key": {"[1]": {"target": "T1, recombinant human trypsin (Homo sapiens, UniProt P07477)", "T1 construct": "purchased Polymum Lot#H149L091.1", "assay": "Small molecule binding to trypsin-immobilized surface, PWV shift", "protocol": "(§1) Trypsin was tested to determine what other proteins could be successfully immobilized on high-density polymer surfaces. Like above, high-density polymer surfaces were activated by adding 0.34 M EDC/10 mM NHS in water for 10 min, followed by removing the solution. 50 μg/ml trypsin in non-amine containing buffer was added to the wells, and was incubated for up to around 700 min, followed by a wash first with acetic buffer, then PBS. The trypsin was recombinant human protein from Polymum Lot#H149L091.1. The results of trypsin binding over time, as a function of delta PWV, are shown in FIG. 14, as well as an NHS control. 90% of the protein was immobilized within less than 2 hr. Benzamidine was then added for binding to the immobilized trypsin by adding benzamidine at a final concentration of 67 μM in PBS, pH 7.4. Benzamidine has a molecular weight of 120.15, and an expected delta PWV or PWV shift of 36 pm.\n(§2) Antipain was then added for binding to the low COOH density surfaces. 49.2, 12.3, 3.1, and 1 μM antipain dihydrochloride in PBS was prepared from a microbial source and was added to the 3.8 nm delta PWV shift from trypsin immobilization. 49.2 μM antipain was also added to no trypsin control wells (N=4). […] The theoretical shift of antipain of 1:1 binding on 3.8 nm delta PWV shift trypsin surface is […]. The control, 49.2 μM antipain in a well with no trypsin immobilization, had […] bulk or NSB PWV shift.\n(§3) Leupeptin was also added for binding to the low COOH density surfaces. 88, 22, 5.5, and 0 μM leupeptin dihydrochloride solutions in PBS were prepared and were added to the 3.8 nm delta PWV shift trypsin immobilization surfaces. 88 μM leupeptin was also added to no trypsin control wells (N=2). […] The theoretical shift of leupeptin of 1:1 binding on 3.8 nm delta PWV trypsin is […]. The control 88 μM leupeptin with no trypsin immobilization had 12 nm bulk or NSB shift."}, "[2]": {"assay": "Trypsin immobilization on high-density polymer surfaces, delta PWV", "format": "binding", "conditions": "for course of immobilization: 10 mM acetate buffer pH 5.0, 3 hr", "protocol": "as §1\nTrypsin binding was also measured on both high and low COOH density surfaces. 100 μg of human recombinant trypsin in 10 mM acetate buffer pH 5.0 was immobilized on either a high or low COOH density surface for 3 hr."}, "[3]": {"assay": "Bulk or NSB PWV shift in no trypsin control wells", "conditions": "88 μM leupeptin, no trypsin immobilization", "protocol": "as §2, §3"}, "[4]": {"assay": "Streptavidin/avidin immobilization on high-density polymer (PAA) surfaces, SWS biosensor PWV shift", "format": "binding", "protocol": "(§4) In order to immobilize protein to the novel surfaces, the high-density polymer surfaces of Examples 2 and 3 were activated by adding 0.34 M EDC/10 mM NHS in water for 10 min, followed by removing the solution. In an initial test of protein immobilization capability and protein activity following immobilization, biotin binding to immobilized streptavidin was used—20 μL of either 200 μg/ml avidin or streptavidin in a non-amine containing buffer (10 mM acetate buffer, pH 5.0) were added to the surface and incubated for 3 hr, followed by a wash first with the non-amine containing buffer, then PBS. Biotin was then added for binding to the immobilized avidin or streptavidin by using a 20 μL of a biotin solution in PBS to result in a final Biotin concentration of approximately 58 μM (N=4).\nThe initial test was followed up by reacting different concentrations of avidin or streptavidin with the different high-density polymer surfaces.\n(§5) 20 μL of either 0, 50, or 200 μg/ml avidin or streptavidin in a non-amine containing buffer were added to the wells after they were pre-activated for 10 min with EDC/NHS, and incubated for 3 hr. This was then followed by a wash first with the non-amine containing buffer. Biotin was then added for binding to the immobilized avidin or streptavidin by adding 20 μL of a biotin solution in PBS to result in a final Biotin concentration of approximately 58 μM (N=4)."}, "streptavidin": {"target": "streptavidin (Streptomyces avidinii, UniProt P22629)", "sequence (P22629 25-183, species assumed)": "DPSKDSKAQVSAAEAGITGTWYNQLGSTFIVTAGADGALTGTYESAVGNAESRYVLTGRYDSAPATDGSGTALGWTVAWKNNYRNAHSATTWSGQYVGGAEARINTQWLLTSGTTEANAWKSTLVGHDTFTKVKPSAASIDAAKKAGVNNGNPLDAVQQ", "assay": "Biotin binding to immobilized streptavidin on PAA surfaces", "protocol": "as §4, §5"}, "avidin": {"target": "avidin (Gallus gallus, UniProt P02701)", "sequence (P02701 25-152, species assumed)": "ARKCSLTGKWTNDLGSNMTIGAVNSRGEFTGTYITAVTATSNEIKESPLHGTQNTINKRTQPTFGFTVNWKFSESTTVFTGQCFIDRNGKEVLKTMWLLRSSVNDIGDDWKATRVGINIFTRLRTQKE", "assay": "Biotin binding to immobilized avidin on PAA surfaces", "protocol": "as §4, §5"}, "[5]": {"conditions": "PAA 100K, high COOH density surface, coated with 1/6 dilution NHS/EDC (theta condition) compared to the other dilutions"}, "[6]": {"conditions": "PAA 100K, low COOH density surface, coated with 1/6 dilution NHS/EDC (theta condition) compared to the other dilutions"}, "[7]": {"conditions": "PAA 250K, high COOH density surface, coated with 1/6 and 1/8 dilution NHS/EDC (theta condition) compared to the other dilutions"}, "[8]": {"conditions": "PAA 250K, low COOH density surface, coated with 1/6 and 1/8 dilution NHS/EDC (theta condition) compared to the other dilutions"}, "[9]": {"conditions": "PAA coated under theta condition, biotin approximately 58 μM"}, "[10]": {"conditions": "low COOH density surfaces (versus high)"}}, "note": "Where a name gives a salt, the structure may show the parent alone.", "data": [{"compound": "N=C(N)c1ccccc1", "note": "[Benzamidine]", "values": [{"measurement": "expected delta PWV or PWV shift", "setting": "[1]; benzamidine 67 μM in PBS, pH 7.4", "result": 36, "unit": "pm"}]}, {"compound": "trypsin", "values": [{"measurement": "time within which 90% of the protein was immobilized", "setting": "[2]; 50 μg/ml trypsin in non-amine containing buffer", "result": "less than 2 hr"}, {"measurement": "delta PWV of trypsin immobilization", "setting": "[2]; high COOH density surface", "result": 7.2, "unit": "nm"}, {"measurement": "course of immobilization", "setting": "[2]; high COOH density surface", "result": "immobilized rapidly"}, {"measurement": "delta PWV of trypsin immobilization", "setting": "[2]; low COOH density surface", "result": 3.8, "unit": "nm"}, {"measurement": "course of immobilization", "setting": "[2]; low COOH density surface", "result": "slow but rising constantly"}]}, {"compound": "CC(=O)N[C@@H](CC(C)C)C(=O)N[C@@H](CC(C)C)C(=O)N[C@H](C=O)CCCNC(=N)N", "note": "[leupeptin, leupeptin dihydrochloride]", "values": [{"measurement": "bulk or NSB shift", "setting": "[3]", "result": 12, "unit": "nm"}, {"measurement": "binding to immobilized trypsin (titration)", "setting": "[1]; 3.8 nm delta PWV trypsin on low COOH density surface", "result": "Titration of leupeptin was observed"}, {"measurement": "binding to immobilized trypsin", "setting": "[1]; 7.2 nm delta PWV trypsin on high COOH density surface", "result": "No positive result was observed"}, {"measurement": "theoretical shift of 1:1 binding", "setting": "[1]; on 3.8 nm delta PWV shift trypsin surface", "result": 66, "unit": "nm"}]}, {"compound": "streptavidin", "values": [{"measurement": "protein immobilization (PWV)", "setting": "[4]; [5]", "result": "More streptavidin was immobilized"}, {"measurement": "protein immobilization (PWV)", "setting": "[4]; [6]", "result": "More streptavidin was immobilized"}, {"measurement": "protein immobilization (PWV)", "setting": "[4]; [7]", "result": "More streptavidin was immobilized"}, {"measurement": "protein immobilization (PWV)", "setting": "[4]; [8]", "result": "More streptavidin was immobilized"}]}, {"compound": "avidin", "values": [{"measurement": "protein immobilization (PWV)", "setting": "[4]; [5]", "result": "More avidin was immobilized"}, {"measurement": "protein immobilization (PWV)", "setting": "[4]; [6]", "result": "More avidin was immobilized"}, {"measurement": "protein immobilization (PWV)", "setting": "[4]; [7]", "result": "More avidin was immobilized"}, {"measurement": "protein immobilization (PWV)", "setting": "[4]; [8]", "result": "More avidin was immobilized"}]}, {"compound": "O=C(O)CCCC[C@@H]1SC[C@@H]2NC(=O)N[C@@H]21", "note": "[Biotin]", "values": [{"measurement": "biotin binding", "setting": "streptavidin; [9]", "result": "higher biotin binding"}, {"measurement": "activity of streptavidin for biotin interaction", "setting": "streptavidin; [10]", "result": "more activity"}, {"measurement": "biotin binding", "setting": "avidin; [9]", "result": "higher biotin binding"}, {"measurement": "activity of avidin for biotin interaction", "setting": "avidin; [10]", "result": "more activity"}]}]}
